Among the test systems are HCC-2998 colon; HOP-62 NSCLC; MOLT-4 leukemia; NCI-H23 lung; NCI-H522 lung; RXF 393 renal; SF-268 CNS; SK-MEL-2 melanoma; SK-MEL-28 melanoma; SW-620 colon.
Common to all, as to assay: NCI tumour cell line growth inhibition, 48 h

Structures are written as SMILES. Where “and” joins values, the source holds several entries; their conditions need not be identical. Equal entries are not always repeated.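 Grown in 96-well plates, cells were treated for 48 hours with each compound at five concentrations. Insufficient inhibition: endpoint recorded as highest concentration tested. GI50 is the concentration that inhibits growth by half. TGI: total growth inhibition.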

With `Clc1ccc(C2=NN(c3ccccc3)C3c4cc(Br)ccc4OCC23)cc1` (stereo unspecified), the TGI in the experiment on HCC-2998 colon, in the experiment on HOP-62 NSCLC, with MOLT-4 leukemia, with NCI-H23 lung, with NCI-H522 lung and in the experiment with RXF 393 renal was greater than 100 µM each time. For the same compound, the TGI with SF-268 CNS, in the experiment with SK-MEL-2 melanoma, in the experiment with SK-MEL-28 melanoma and in the experiment with SW-620 colon was greater than 100 µM each time.

As to `CC(=O)NNc1nc(C)c(C(/C=C/c2ccc3c(c2)OCO3)=N/NC(=O)c2ccncc2)s1`, the TGI in the experiment with HCC-2998 colon, in the experiment with HOP-62 NSCLC, in the experiment on MOLT-4 leukemia, in the experiment on NCI-H23 lung, in the experiment on NCI-H522 lung and with RXF 393 renal was greater than 100 µM in each case. The TGI in the experiment on SF-268 CNS, with SK-MEL-2 melanoma, with SK-MEL-28 melanoma and in the experiment on SW-620 colon was greater than 100 µM each time.

Turning to `COc1ccc(Nc2nc3c(N)cc(C(F)(F)F)cc3nc2-c2ccccc2)cc1`, the TGI was greater than 100 µM in the experiment on HCC-2998 colon; greater than 100 µM in the experiment with HOP-62 NSCLC; greater than 100 µM with MOLT-4 leukemia; greater than 100 µM with NCI-H23 lung; greater than 100 µM in the experiment with NCI-H522 lung; 68.2 µM with RXF 393 renal. For the same compound, the TGI with SF-268 CNS, with SK-MEL-2 melanoma, with SK-MEL-28 melanoma and in the experiment with SW-620 colon was greater than 100 µM throughout.

Turning to `Cn1cc(-c2ccc3c(c2)ncn3-c2ccc(CC(=O)Nc3cc(C(C)(C)C)on3)cc2)cn1`, the GI50 is 8.04 µM in the experiment on HCC-2998 colon; 1.41 µM in the experiment with HOP-62 NSCLC; 1.58 µM with MOLT-4 leukemia; 1.88 µM in the experiment on NCI-H23 lung; 2.27 µM in the experiment with NCI-H522 lung; 0.173 µM in the experiment on RXF 393 renal. The GI50 in the experiment with SF-268 CNS is 0.674 µM; in the experiment on SK-MEL-2 melanoma, 1.99 µM; in the experiment with SK-MEL-28 melanoma it was 2.65 µM; with SW-620 colon it was 2.44 µM. The TGI with HCC-2998 colon was greater than 100 µM; in the experiment on HOP-62 NSCLC it was 29.4 µM; with MOLT-4 leukemia, greater than 100 µM; in the experiment on NCI-H23 lung it was 17.2 µM; in the experiment on NCI-H522 lung, 13.9 µM; in the experiment on RXF 393 renal, 0.908 µM. In addition, the TGI in the experiment with SF-268 CNS is greater than 46.5 µM; in the experiment with SK-MEL-2 melanoma it was 5.14 µM; with SK-MEL-28 melanoma it was greater than 100 µM; with SW-620 colon, greater than 100 µM.

In the case of `COC1C2c3ccccc3C(C#N)(Cc3ccc4c(c32)OCO4)N1C(=O)c1ccccc1` (stereo unspecified), the TGI in the experiment with HCC-2998 colon, in the experiment on HOP-62 NSCLC, in the experiment on MOLT-4 leukemia, in the experiment on NCI-H23 lung, with NCI-H522 lung and with RXF 393 renal was greater than 100 µM throughout. For the same compound, the TGI in the experiment with SF-268 CNS, in the experiment with SK-MEL-2 melanoma, in the experiment with SK-MEL-28 melanoma and with SW-620 colon was greater than 100 µM each time.

For the compound `Cc1cc(N(CCC#N)CCC#N)ccc1N=Nc1ccc([N+](=O)[O-])cc1`, the TGI with HCC-2998 colon, in the experiment with HOP-62 NSCLC, in the experiment with MOLT-4 leukemia, with NCI-H23 lung, with NCI-H522 lung and in the experiment with RXF 393 renal was greater than 100 µM throughout. Moreover, the TGI in the experiment with SF-268 CNS was greater than 100 µM; in the experiment with SK-MEL-2 melanoma it was greater than 100 µM; in the experiment with SK-MEL-28 melanoma, greater than 100 µM; in the experiment with SW-620 colon it was greater than 10 µM.

`CCN(CC)c1ccc(/C=C/C2=[N+](C)c3ccccc3C2(C)C)cc1`: the GI50 is 0.547 µM in the experiment with HCC-2998 colon; 0.697 µM in the experiment with HOP-62 NSCLC; 0.557 µM in the experiment with MOLT-4 leukemia; 0.181 µM in the experiment with NCI-H23 lung; 0.274 µM with NCI-H522 lung; 0.75 µM with RXF 393 renal. Also, the GI50 was 0.627 µM in the experiment on SF-268 CNS, 0.487 µM in the experiment with SK-MEL-2 melanoma, 0.61 µM in the experiment with SK-MEL-28 melanoma and 0.36 µM in the experiment on SW-620 colon. In addition, the TGI is 18.6 µM in the experiment with HCC-2998 colon; 16.3 µM with HOP-62 NSCLC; greater than 100 µM in the experiment with MOLT-4 leukemia; 25.8 µM in the experiment with NCI-H23 lung; 21.8 µM in the experiment on NCI-H522 lung; 16.5 µM with RXF 393 renal. Further, the TGI is 33.2 µM in the experiment on SF-268 CNS, greater than 35.9 µM in the experiment with SK-MEL-2 melanoma, 9.48 µM in the experiment on SK-MEL-28 melanoma and 19.4 µM in the experiment with SW-620 colon.

Consider `CN(C)CC1CCCC(CN(C)C)C1=O` (stereo unspecified), for which the TGI in the experiment on HCC-2998 colon is 29.5 µM and 36 µM; in the experiment with HOP-62 NSCLC, > 90.6 µM and 43 µM; in the experiment with MOLT-4 leukemia, 1.14 µM and 2.08 µM; with NCI-H23 lung it was 18.5 µM and 43.4 µM; in the experiment on NCI-H522 lung, 0.443 µM and 3.46 µM; with RXF 393 renal, 3.29 µM and 3.25 µM. Also, the TGI was 31.7 µM and 65.6 µM with SF-268 CNS; 20.6 µM and 35.2 µM with SK-MEL-2 melanoma; 5.21 µM and 33.8 µM with SK-MEL-28 melanoma; 0.639 µM and 1.92 µM with SW-620 colon. For the same compound, the GI50 is > 73.1 µM and 20.8 µM in the experiment on HOP-62 NSCLC; 0.293 µM in the experiment on MOLT-4 leukemia; 5.35 µM and 20.7 µM with NCI-H23 lung; 0.179 µM and 1.06 µM with NCI-H522 lung; 11.5 µM and 23.4 µM in the experiment with SF-268 CNS; 2.17 µM and 18.3 µM in the experiment on SK-MEL-28 melanoma. Also, in the experiment with SW-620 colon, the GI50 was 0.367 µM.

For the compound `O=C(/C=C/c1cccnc1)/C=C/c1cccnc1`, the GI50 in the experiment on HCC-2998 colon was 0.846 µM; in the experiment on HOP-62 NSCLC, 6.27 µM; in the experiment with MOLT-4 leukemia it was 0.31 µM; in the experiment on NCI-H23 lung it was 2.33 µM; in the experiment with NCI-H522 lung it was 1.77 µM; in the experiment with RXF 393 renal it was 0.608 µM. Further, the GI50 in the experiment on SF-268 CNS was 2.73 µM; with SK-MEL-2 melanoma it was 1.43 µM; in the experiment with SK-MEL-28 melanoma it was 1.95 µM; with SW-620 colon, 0.724 µM. The TGI in the experiment on HCC-2998 colon turned out to be 2.19 µM; with HOP-62 NSCLC it was 16.4 µM; in the experiment with NCI-H23 lung, 6.7 µM; with NCI-H522 lung, 4.69 µM; in the experiment on RXF 393 renal, 1.53 µM; with SF-268 CNS it was 7.77 µM. Moreover, the TGI in the experiment with SK-MEL-2 melanoma worked out at 3.58 µM; with SK-MEL-28 melanoma, 4.02 µM; with SW-620 colon it was 2.48 µM.

For `COc1cc(-c2cn(-c3ccc(Cl)cc3)c(=O)n2-c2ccccc2)cc(OC)c1OC`, the GI50 with HCC-2998 colon is greater than 56.3 µM; in the experiment on HOP-62 NSCLC it was greater than 85.3 µM; in the experiment on MOLT-4 leukemia, 59.6 µM; with NCI-H23 lung, greater than 100 µM; in the experiment with NCI-H522 lung it was 45.1 µM; in the experiment with RXF 393 renal it was 25.4 µM. For the same compound, the GI50 in the experiment with SF-268 CNS was greater than 68.9 µM; with SK-MEL-2 melanoma, greater than 25.9 µM; in the experiment on SK-MEL-28 melanoma it was 56.4 µM; in the experiment with SW-620 colon it was greater than 100 µM. Moreover, the TGI was greater than 100 µM in the experiment with HCC-2998 colon; greater than 100 µM in the experiment with HOP-62 NSCLC; greater than 100 µM in the experiment on MOLT-4 leukemia; greater than 100 µM in the experiment on NCI-H23 lung; greater than 100 µM with NCI-H522 lung; greater than 81.9 µM in the experiment with RXF 393 renal. Besides, the TGI with SF-268 CNS, with SK-MEL-2 melanoma, in the experiment on SK-MEL-28 melanoma and with SW-620 colon was greater than 100 µM in each case.
